The text below walks through data of patent US8431698B2, “Bioluminescent endoscopy methods and compounds” (BioLume Inc., priority 2007, dated 2013).

One assay addresses T1, Renilla luciferase (Renilla reniformis, UniProt P27652).
T1 construct: made in house
T1 sequence (P27652 1-311): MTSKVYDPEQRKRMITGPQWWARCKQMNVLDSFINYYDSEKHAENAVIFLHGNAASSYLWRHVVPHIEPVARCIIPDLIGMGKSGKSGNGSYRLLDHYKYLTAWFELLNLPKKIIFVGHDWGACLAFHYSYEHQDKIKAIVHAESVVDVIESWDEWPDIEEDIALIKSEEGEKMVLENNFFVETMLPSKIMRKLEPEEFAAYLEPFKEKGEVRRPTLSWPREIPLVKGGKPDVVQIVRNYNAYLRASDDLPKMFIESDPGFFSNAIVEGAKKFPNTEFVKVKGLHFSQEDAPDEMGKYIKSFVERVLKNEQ
The experiment in a line: Visible glow of coelenterazine with crude extract of bacteria expressing Renilla luciferase in assay buffer. The class given is biochemical. The settings on record: about 0.005 mg coelenterazine, about 0.25 ml crude extract, 100 ml assay buffer. As for the experimental part:
In certain embodiments herein, about 1 to 10 mg, or preferably 2-5 mg, more preferably about 3 mg of coelenterazine will be used with about 100 mg of Renilla luciferase. The precise amounts, of course can be determined empirically, and, also will depend to some extent on the ultimate concentration and application.

Assay [1] in a line: Rat bioluminescence imaging after coelenterazine and Renilla luciferase via bilateral jugular cannulas. It counts as in vivo. Conditions: coelenterazine 50 mM in Hank's balanced salt solution in one jugular cannula, Renilla luciferase 5 mg/ml in the opposite. The method, then:
A rat was equipped with bilateral jugular cannulas. To one was applied a solution of coelenterazine (50 mM) in Hank's balanced salt solution and to the opposite jugular cannula was administered Renilla luciferase, 5 mg/ml in Hank's balanced slat solution. An image was obtained and was pseudocoloured with Scion Image according to the light level obtained by a Princeton Instruments camera and is shown at FIG. 19.
A rat was equipped with bilateral jugular cannulas. To one was applied a solution of coelenterazine (50 mM) in Hank's balanced salt solution and to the opposite jugular cannula was administered Renilla luciferase, 5 mg/ml in Hank's balanced slat solution. An image was obtained and was pseudocoloured with Scion Image according to the light level obtained by a Princeton Instruments camera and is shown at FIG. 20.
A rat was equipped with bilateral jugular cannulas. To one was applied a solution of coelenterazine (50 mM) in Hank's balanced salt solution and to the opposite jugular cannula was administered Renilla luciferase, 5 mg/ml in Hank's balanced slat solution. An image was obtained and was pseudocoloured with Scion Image according to the light level obtained by a Princeton Instruments camera and is shown at FIG. 21.

In assay [2] the test system is aequorin photoprotein luciferase or luciferase from Renilla. The experiment in a line: Duration of glow of luciferin in water after adding luciferase in presence of Ca++. The class given is biochemical. Conditions: 5 mg luciferin in one liter of water, about 10 mgs luciferase, Ca++ present; depends on water temperature. As for the experimental part: Thus, for example, 5 mg of luciferin, such as coelenterazine, in one liter of water will glow brightly for at least about 10 to 20 minutes, depending on the temperature of the water, when about 10 mgs of luciferase, such as aequorin photoprotein luciferase or luciferase from Renilla, is added thereto in presence of Ca^++. Increasing the concentration of luciferase, for example, to 100 mg/L, provides a particularly brilliant light display.

On to `Oc1ccc(Cc2nc3c(Cc4ccccc4)nc(-c4ccc(O)cc4)cn3c2O)cc1` [coelenterazine], for which the glow produced result on Renilla luciferase is “sufficient to produce a visible and lasting glow”. In assay [1], the “bioluminescence image, liver (FIG. 20)” value is recorded as “patchy contrast regions in the liver” and the “bioluminescence image, whole animal (FIG. 21)” value was “perfusion of bioluminescence in the whole animal”. Also, in assay [2], the “time of bright glow” value was in the range of 10 to 20 min.
